Measured values: patent publication US8936809B2, “Method for treating prostate diseases based on local delivery of active substances” (Lidds AB, priority 2005, dated 2015)
Like-named read-outs stand apart in the source and are kept apart here.

How the values were obtained:
[1] = Plasma pharmacokinetics and tissue level after local administration of ceramic-based controlled release composition into dog prostate (Example 1); assay type: in vivo
Procedure: One week later, the same animals were given 2-hydroxy-flutamide locally by a controlled release pharmaceutical composition in the prostate tissue. The 2-hydroxy- flutamide doses were 0 mg (H1), 30 mg (H3), 60 mg (H2) and 120 mg (H4), and each dog was given one implant only. Where H1 was a control given the composition without 2-hydroxy-flutamide. All doses of 2-hydroxy-flutamide were given after an overnight fast. Dog 1 (H1) and dog 3 (H3) were given an enema preoperatively. After the local prostate application of the pharmaceutical composition through rectum, an antibiotic (Quinolon) was administered in normal doses.
The controlled release pharmaceutical composition was composed of a calcium sulphate ceramic and 2-hydroxy-flutamide (Catalogue No. 161.01, from Micromol). To prepare the implant, a calcium sulfate hemi-hydrate (Calcium Sulfate-0.5-hydrate, Product No. 12090, from Riedel-de Haen) is mixed as a fine-grained powder with water and the active agent to form an injectable paste. The paste solidifies in-vivo in about 5 minutes to a solid implant. The ceramic powder to water ratio is 1:2 and the dose of active agent (30, 60 or 120 mg) is mixed with a total 0.8 ml of paste.
The controlled release pharmaceutical composition was inserted locally into the prostate tissue through needles by ultrasound guidance. The animals were under general anesthesia during the insertion procedure. The needle (15 cm long with an outer diameter of 0.9 mm) was inserted into the prepared rectum (an enema was given preoperatively) and was inserted through the rectal and abdominal wall and positioned in the prostate tissue by ultrasound guidance. The pharmaceutical composition was given as multiple thin strings of approximately 12 mm length and with a diameter of 1-2 mm.
After administration of the controlled release pharmaceutical composition in the prostate tissue, blood samples were taken during 3 weeks. Samples of 1.0 ml were taken from the Cephalic vein at day 0, after 6 hours and then in the morning at day 1, 2, 3, 4, 5, 6, 9, 12, 14, 16, 19 and 20 following the administration of the implant. The blood samples were immediately centrifuged at 3000 rpm and the plasma samples were frozen at −20° C. until analysis.
After day 20, each dog was terminated with an intravenous dose of a mixture of pentobarbital and potassium. The following organs were surgical removed and frozen: prostate, testis, liver and kidney for the assessment of effect and safety. These organs were carefully examined as a consequence of the local tissue exposure of 2-hydroxy-flutamide and the ceramic-based implant.
Quantification of 2-hydroxy-flutamide in plasma and tissue samples was done by HPLC-MS. HPLC was performed with a Surveyor HPLC system equipped with a CTC Pal autosampler. The analytical column was a Zorbax Eclipse XDB-18 (2.1 mm×50 mm, particle size 5 μm) connected to a guard column. The eluent consisted of solvent A (aqueous formic acid 0.1%) and B (acetonitrile), a linear gradient from 25 to 90% of solvent B in 5 minutes was applied. The proportion of solvent B was then lowered to 25% in one minute and was allowed to equilibrate at this level for two minutes prior to the next injection. The volumetric flow-rate was 200 μL/min and the injection volume was 20 μL. The HPLC column outlet was coupled to a TSQ Quantum Ultra tandem triple quadrupole mass spectrometer (ThermoFinnigan, San José, Calif., USA). The transition of m/z 291 [M-H]^−→205 was used for 2-hydroxy-flutamide and m/z 316 [M-H]^−→273 was used for nilutamide (internal standard). The limit of quantification was 0.50 ng/ml in dog plasma. Calibration samples were prepared by spiking blank plasma samples with 100 μL of solutions of 2-hydroxy-flutamide at different concentrations. […]

[2] = system: androgen dependent tissue (bulbourethral gland); experiment: Local anti-androgen effect and side effects after implant into bulbourethral gland of male sheep (Example 2); assay type: in vivo
Procedure: The major purpose of the present animal study was to examine the pharmacokinetics, efficacy and safety of the novel local drug delivery system with 2-hydroxyflutamide, a selective antagonist to the androgen receptor (AR). A ceramic based drug delivery product was administered into an androgen dependent tissue (the bulbourethral gland) in male sheep. In total 11 male sheep were divided into two separate groups. One group was given 2-hydroxyflutamide by the local implant delivery system as a single administration into the bulbourethral gland and was monitored during 2 months. Each sheep in this treatment group received the prostate implant by a single dose of 250 mg. The other group only received ceramic formulation without any active drug substance.
The implant drug delivery system was inserted locally, via rectum, into the androgen dependent tissue (bulbourethral gland) through sterile needles during rectal ultrasound guidance. The animals were during anaesthesia throughout the insertion procedure. The sterile ceramic based implant had two major components: calcium sulphate (CaSO4-0.5H2O) and 2-hydroxyflutamide. The composition of the formulation was 250 mg 2-hydroxyflutamide+2.25 g calcium sulphate di-hydrate+5.0 g calcium sulphate hemi-hydrate and it was mixed with solution: 3.5 ml of water solution (with 1% acetic acid and 1% methyl cellulose). […]

[3] = male, Labrador, plasma, dog H2, 60 mg local prostate implant
[4] = male, Labrador, plasma, dog H3, 30 mg local prostate implant
[5] = male, Labrador, plasma, dog H4, 120 mg local prostate implant

concentration in the prostate tissue ([1]; dogs, after three weeks of treatment with local implant): not possible to quantify
Cmax after intravenous dosing relative to Cmax after local implant dosing ([1]; dogs, i.v. 25 mg versus local implant 120 mg): about 6 times
half-life ([1]; male, Labrador, dog, plasma, 30 mg, dog H3, 30 mg local prostate implant, read-out: t1/2 (converted)): 35 h
half-life ([1]; male, Labrador, dog, plasma, 60 mg, dog H2, 60 mg local prostate implant, read-out: t1/2 (converted)): 45 h
half-life ([1]; male, Labrador, dog, plasma, 120 mg, dog H4, 120 mg local prostate implant, read-out: t1/2 (converted)): 41 h
half-life ([1]; male, Labrador, dog, plasma, 120 mg, given in the ceramic composition, three dosed dogs (30, 60, 120 mg), read-out: elimination half-life): 35 to 45 h
bioavailability ([1]; male, Labrador, dog, plasma, dogs, local prostate implant, on average, read-out: bioavailability from the intraprostate tissue (approximation)): > 100%
AUC [1, 3]: 4020 ng·h/mL
Cmax [1, 3]: 69.5 ng/mL
Tmax [1, 3]: 6 h
AUC [1, 4]: 990 ng·h/mL
Cmax [1, 4]: 26.4 ng/mL
Tmax [1, 4]: 6 h
AUC [1, 5]: 9410 ng·h/mL
Cmax [1, 5]: 142 ng/mL
Tmax [1, 5]: 24 h
Compound: CC(C)(O)C(=O)Nc1ccc([N+](=O)[O-])c(C(F)(F)F)c1 [2-hydroxy-flutamide]
androgen dependent side effect ([2]; 250 mg implant into bulbourethral gland): no androgen dependent side effect observed
macroscopic effect on the androgen dependent tissue (bulbourethral gland) ([2]; single intra-gland injection of 250 mg implant): decreased volume and weight
